Laboratory results as given in patent publication US8901126B2, “Substituted imidazo[1,5-A]quinoxalin-4-ones are useful for preventing or treating storage dysfunction, voiding dysfunction and bladder/urethral diseases” (priority 2010, dated 2014).
Structures can show the parent of a compound that is named as a salt.

target: T1, PDE9 (Homo sapiens, UniProt O76083); experiment: PDE9-inhibiting activity (SPA, 3H-cGMP degradation); assay type: biochemical; settings: PDE9-inhibiting activity (IC50 values), cGMP 1 μM, 30° C.
T1 construct: made in house
Description: The PDE9 used in the present experiment was expressed/purified by the method as in, for example, Guipponi et al., and Fisher et., al. (Fisher, D. A., et al., J. Biol. Chem., 273: pp. 15559-15564 (1998), Guipponi, M., et al., Hum. Genet., 103: pp. 386-392 (1998)).
(2) Evaluation of PDE9-Inhibiting Activity
The PDE9-inhibiting activity was measured by the following method. That is, to a buffer solution containing tris(hydroxymethyl)aminomethane-hydrochloric acid (40 mM, pH 8.0), magnesium chloride (5 mM), and 2-mercaptoethanol (4 mM) were added cGMP (1 μM) and ^3H-cGMP (0.33 μCi/ml) to give a substrate buffer solution. A test substance solution and an enzyme solution which had been adjusted to an optimal concentration were added thereto to perform a reaction at 30° C. The enzyme reaction was stopped by the addition of Scintillation Proximity Assay (SPA) Beads (Perkin Elmer, USA) containing 5 mM 3-isobutyl-1-methylxanthine (IBMX). For the enzyme activity, the amount of 5′-GMP, which is a reaction degradation product bound to SPA beads, was measured with a TopCount microplate reader (Hewlett Packard, USA).
The inhibitory rate was calculated by taking the radioactivity of the control containing no test substance as (A), taking the radioactivity of the blank containing no enzyme as (B), and taking the radioactivity of the test substance as (C), and using the following equation. Inhibitory rate=100−{(C)−(B)/(A)−(B)}×100(%)

T1 sequence (O76083 whole entry): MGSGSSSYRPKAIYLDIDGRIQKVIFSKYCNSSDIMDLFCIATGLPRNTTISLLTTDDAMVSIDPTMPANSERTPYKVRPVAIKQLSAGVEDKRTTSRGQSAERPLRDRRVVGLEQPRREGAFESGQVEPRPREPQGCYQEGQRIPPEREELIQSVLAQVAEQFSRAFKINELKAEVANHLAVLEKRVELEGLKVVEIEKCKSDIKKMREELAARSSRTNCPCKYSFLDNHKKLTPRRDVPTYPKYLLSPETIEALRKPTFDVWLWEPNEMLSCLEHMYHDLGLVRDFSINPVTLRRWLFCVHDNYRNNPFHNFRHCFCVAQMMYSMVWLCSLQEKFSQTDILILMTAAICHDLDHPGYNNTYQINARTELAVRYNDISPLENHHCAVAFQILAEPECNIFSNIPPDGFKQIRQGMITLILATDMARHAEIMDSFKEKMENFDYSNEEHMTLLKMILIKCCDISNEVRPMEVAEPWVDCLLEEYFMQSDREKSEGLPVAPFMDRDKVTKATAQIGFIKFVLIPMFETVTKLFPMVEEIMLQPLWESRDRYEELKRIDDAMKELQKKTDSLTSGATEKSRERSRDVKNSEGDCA

Q: For `Cc1cc2c(cc1C(=O)N1CCc3cc(F)ccc31)[nH]c(=O)c1cnc([C@@H]3CCC[C@@H]3O)n12` [Example 22], which IC50 is on record?
A: The IC50 was 56 nM.

Q: With `Cc1cc2c(cc1C(=O)N1CCc3cc(Br)cnc31)[nH]c(=O)c1cnc(C3CCOC3)n12` (centres unmarked) [Example 29] as the compound, how does the IC50 read?
A: Its IC50 is 15 nM.

Q: With `COc1cc2c(cn1)N(C(=O)c1cc3[nH]c(=O)c4cnc(C5CCOC5)n4c3cc1C)CC2` (centres unmarked) [Example 27] as the compound, how does the IC50 read?
A: The IC50 was 84 nM.

Q: Which IC50 does the source give for `CCc1cc2c(cc1C(=O)N1CCc3cc(Cl)ccc31)[nH]c(=O)c1nnc(CC3CC3)n12` [Example 16] here?
A: Its IC50 is 3.3 nM.

Q: For `Cc1cc2c(cc1C(=O)N1CCc3cc(Br)cnc31)[nH]c(=O)c1cnc([C@@H]3CCC[C@@H]3O)n12` (racemic) [Example 5, 7-[(5-bromo-2,3-dihydro-1H-pyrrolo[2,3-b]pyridin-1-yl)carbonyl]-1-(cis-2-hydroxycyclopentyl)-8-methylimidazo[1,5-a]quinoxalin-4(5H)-one], which IC50 is on record?
A: Its IC50 is 62 nM.

Q: With `Cc1cc2c(cc1C(=O)N1c3ccc(Cl)cc3CC1C)[nH]c(=O)c1nnc(C3CCOCC3)n12.Cl` (centres unmarked) [Example 7] as the compound, how does the IC50 read?
A: Its IC50 is 2.1 nM.

Q: Which IC50 does the source give for `COC1CC(c2nnc3c(=O)[nH]c4cc(C(=O)N5CCc6cc(Br)ccc65)c(C)cc4n23)C1.Cl` (centres unmarked) [Example 15] here?
A: Its IC50 is 2.8 nM.

Q: For `CCc1cc2c(cc1C(=O)N1Cc3c(F)ccc(F)c3C1)[nH]c(=O)c1nnc(C3CCC3)n12` [Example 37], which IC50 is on record?
A: The IC50 was 53 nM.

Q: With `Cc1cc2c(cc1C(=O)N1Cc3c(F)ccc(F)c3C1)[nH]c(=O)c1nnc(CC3CC3)n12` [Example 38] as the compound, how does the IC50 read?
A: Its IC50 is 28 nM.

Q: Which IC50 does the source give for `CCc1cnc2c(c1)CCN2C(=O)c1cc2[nH]c(=O)c3cnc(C4CCOC4)n3c2cc1C` (single isomer, unassigned) [Example 28(b)] here?
A: The IC50 was 47 nM.

Q: Which IC50 does the source give for `Cc1cnc2c(c1)CCN2C(=O)c1cc2[nH]c(=O)c3cnc(C4CCOC4)n3c2cc1C` (single isomer, unassigned) [Example 26(b)] here?
A: The IC50 was 45 nM.

Q: For `Cc1cc2c(cc1C(=O)N1CCc3cc(F)c(F)cc31)[nH]c(=O)c1cnc(C3CCOC3)n12` (centres unmarked) [Example 30], which IC50 is on record?
A: The IC50 was 11 nM.

Q: Which IC50 does the source give for `O=C(c1cc2[nH]c(=O)c3cnc(C4CCOCC4)n3c2cc1Cl)N1CCc2cc(Br)cnc21` [Example 48] here?
A: Its IC50 is 0.8 nM.

Q: For `Cc1cc2c(cc1C(=O)N1Cc3c(F)ccc(F)c3C1)[nH]c(=O)c1cnc(C3CCOC3)n12` (single isomer, unassigned) [Example 39(b)], which IC50 is on record?
A: Its IC50 is 14 nM.

Q: Which IC50 does the source give for `COCc1cc2c(cc1C(=O)N1CCc3cc(Cl)ccc31)[nH]c(=O)c1nnc(C3CCC3)n12.Cl` [Example 46] here?
A: Its IC50 is 13 nM.

Q: Which IC50 does the source give for `Cc1cnc2c(c1)CCN2C(=O)c1cc2[nH]c(=O)c3cnc(C4CCOC4)n3c2cc1C` (single isomer, unassigned) [Example 26(a)] here?
A: The IC50 was 152 nM.

Q: For `CCc1cnc2c(c1)CCN2C(=O)c1cc2[nH]c(=O)c3cnc(C4CCOC4)n3c2cc1COC` (single isomer, unassigned) [Example 40(a)], which IC50 is on record?
A: Its IC50 is 77 nM.

Q: Which IC50 does the source give for `CCc1cnc2c(c1)CCN2C(=O)c1cc2[nH]c(=O)c3cnc(C4CCOC4)n3c2cc1C` (single isomer, unassigned) [Example 28(a)] here?
A: Its IC50 is 139 nM.

Q: With `COCc1cc2c(cc1C(=O)N1CCc3cc(C)cnc31)[nH]c(=O)c1cnc(C3CCOC3)n12` (single isomer, unassigned) [Example 25(a)] as the compound, how does the IC50 read?
A: Its IC50 is 62 nM.

Q: With `COCc1cc2c(cc1C(=O)N1CCc3cc(Br)cnc31)[nH]c(=O)c1cnc(C3CCOC3)n12` (single isomer, unassigned) [Example 43(a)] as the compound, how does the IC50 read?
A: Its IC50 is 25 nM.

Q: For `COC1CC(c2nnc3c(=O)[nH]c4cc(C(=O)N5CCc6cc(Br)cnc65)c(C)cc4n23)C1` (centres unmarked) [Example 34], which IC50 is on record?
A: Its IC50 is 7.5 nM.

Q: Which IC50 does the source give for `CCc1cnc2c(c1)CCN2C(=O)c1cc2[nH]c(=O)c3cnc(C4CCOC4)n3c2cc1C` (centres unmarked) [Example 28] here?
A: Its IC50 is 52 nM.

Q: With `CCc1cnc2c(c1)CCN2C(=O)c1cc2[nH]c(=O)c3cnc(C4CCOC4)n3c2cc1COC` (single isomer, unassigned) [Example 40(b)] as the compound, how does the IC50 read?
A: Its IC50 is 16 nM.

Q: With `COCc1cccc2c1CN(C(=O)c1cc3[nH]c(=O)c4cnc(C5CCOCC5)n4c3cc1C)C2` [Example 14] as the compound, how does the IC50 read?
A: Its IC50 is 14 nM.

Q: With `COCC1Cc2cc(Cl)ccc2N1C(=O)c1cc2[nH]c(=O)c3nnc(C4CCOCC4)n3c2cc1C` (centres unmarked) [Example 9] as the compound, how does the IC50 read?
A: The IC50 was 1.3 nM.

Q: With `Cc1cc2c(cc1C(=O)N1Cc3c(F)ccc(F)c3C1)[nH]c(=O)c1cnc(C3CCOC3)n12` (single isomer, unassigned) [Example 39(a)] as the compound, how does the IC50 read?
A: Its IC50 is 52 nM.

Q: Which IC50 does the source give for `CCc1cnc2c(c1)CCN2C(=O)c1cc2[nH]c(=O)c3nnc(CC4CC4)n3c2cc1C` [Example 6, 1-(cyclopropylmethyl)-7-[(5-ethyl-2,3-dihydro-11′-pyrrolo[2,3-b]pyridin-1-yl)carbonyl]-8-methyl[1,2,4]triazolo[4,3-a]quinoxalin-4(5H)-one dihydrochloride] here?
A: Its IC50 is 64 nM.

Q: Which IC50 does the source give for `COCc1cc2c(cc1C(=O)N1Cc3c(F)ccc(F)c3C1)[nH]c(=O)c1cnc(C3CCOC3)n12` (single isomer, unassigned) [Example 45(a)] here?
A: Its IC50 is 26 nM.

Q: With `CCc1cc2c(cc1C(=O)N1CCc3cc(Br)cnc31)[nH]c(=O)c1nnc(C3CCC3)n12` [Example 35] as the compound, how does the IC50 read?
A: Its IC50 is 19 nM.

Q: Which IC50 does the source give for `Cc1cc2c(cc1C(=O)N1CCc3cc(Br)cnc31)[nH]c(=O)c1cnc(C3CCOC3)n12` (single isomer, unassigned) [Example 29(a)] here?
A: The IC50 was 24 nM.

Q: Which IC50 does the source give for `COc1cc2c(cn1)N(C(=O)c1cc3[nH]c(=O)c4cnc(C5CCOC5)n4c3cc1C)CC2` (single isomer, unassigned) [Example 27(a)] here?
A: The IC50 was 137 nM.

Q: With `Cc1cc2c(cc1C(=O)N1Cc3c(F)ccc(F)c3C1)[nH]c(=O)c1nnc(C3CCC3)n12` [Example 36] as the compound, how does the IC50 read?
A: Its IC50 is 53 nM.

Q: With `Cc1cc2c(cc1C(=O)N1Cc3cccc(CN(C)C)c3C1)[nH]c(=O)c1cnc(C3CCOCC3)n12` [Example 11] as the compound, how does the IC50 read?
A: The IC50 was 31 nM.

Q: With `CCc1cc2c(cc1C(=O)N1CCc3cc(F)ccc31)[nH]c(=O)c1nnc(CC3CC3)n12` [Example 17] as the compound, how does the IC50 read?
A: The IC50 was 8.5 nM.

Q: With `Cc1cc2c(cc1C(=O)N1CCc3cc(F)c(F)cc31)[nH]c(=O)c1cnc(C3CCOC3)n12` (single isomer, unassigned) [Example 30(a)] as the compound, how does the IC50 read?
A: Its IC50 is 38 nM.

Q: Which IC50 does the source give for `O=C(c1cc2[nH]c(=O)c3cnc(C4CCOCC4)n3c2cc1F)N1CCc2cc(Cl)ccc21` [Example 12] here?
A: Its IC50 is 3.6 nM.

Q: With `Cc1cc2c(cc1C(=O)N1CC(C)(C)c3cc(Br)cnc31)[nH]c(=O)c1nnc(C3CCOCC3)n12` [Example 33] as the compound, how does the IC50 read?
A: Its IC50 is 0.81 nM.

Q: For `COCc1cc2c(cc1C(=O)N1CCc3cc(OC)ncc31)[nH]c(=O)c1cnc(C3CCOC3)n12` (single isomer, unassigned; (-)) [Example 4(a), (−)-7-[(5-methoxy-2,3-dihydro-1H-pyrrolo[2,3-c]pyridin-1-yl)carbonyl]-8-(methoxymethyl)-1-(tetrahydrofuran-3-yl)imidazo[1,5-a]quinoxalin-4(5H)-one dihydrochloride], which IC50 is on record?
A: Its IC50 is 62 nM.

Q: With `CCc1cc2c(cc1C(=O)N1CCc3cc(Br)cnc31)[nH]c(=O)c1nnc(CC3CC3)n12` [Example 18] as the compound, how does the IC50 read?
A: Its IC50 is 5.4 nM.

system: not given; experiment: not given; settings: not given

Q: Which melting point does the source give for `Cc1cc2c(cc1C(=O)N1CCc3cc(F)ccc31)[nH]c(=O)c1cnc([C@@H]3CCC[C@@H]3O)n12` [Example 22] here?
A: The melting point was 197 to 199 °C.

Q: Which melting point does the source give for `COc1cc2c(cn1)N(C(=O)c1cc3[nH]c(=O)c4cnc(C5CCOC5)n4c3cc1C)CC2` (centres unmarked) [Example 27] here?
A: The melting point was 241 to 243 °C.

Q: With `Cc1cc2c(cc1C(=O)N1CCc3cc(Br)cnc31)[nH]c(=O)c1cnc([C@@H]3CCC[C@@H]3O)n12` (racemic) [Example 5, 7-[(5-bromo-2,3-dihydro-1H-pyrrolo[2,3-b]pyridin-1-yl)carbonyl]-1-(cis-2-hydroxycyclopentyl)-8-methylimidazo[1,5-a]quinoxalin-4(5H)-one] as the compound, how does the melting point read?
A: The melting point was 296 to 303 °C.

Q: Which melting point does the source give for `Cc1cc2c(cc1C(=O)N1c3ccc(Cl)cc3CC1C)[nH]c(=O)c1nnc(C3CCOCC3)n12.Cl` (centres unmarked) [Example 7] here?
A: The melting point was 324 to 326 °C.

Q: For `COC1CC(c2nnc3c(=O)[nH]c4cc(C(=O)N5CCc6cc(Br)ccc65)c(C)cc4n23)C1.Cl` (centres unmarked) [Example 15], which melting point is on record?
A: The melting point was 188 to 189 °C.

Q: For `O=C(c1cc2[nH]c(=O)c3cnc(C4CCOCC4)n3c2cc1Cl)N1CCc2cc(Br)cnc21` [Example 48], which melting point is on record?
A: The melting point was 270 to 275 °C (dec.).

Q: With `COCc1cc2c(cc1C(=O)N1CCc3cc(Cl)ccc31)[nH]c(=O)c1nnc(C3CCC3)n12.Cl` [Example 46] as the compound, how does the melting point read?
A: The melting point was 170 to 172 °C.

Q: Which melting point does the source give for `CCc1cnc2c(c1)CCN2C(=O)c1cc2[nH]c(=O)c3nnc(CC4CC4)n3c2cc1C` (as salt: hydrochloride) [Example 6, 1-(cyclopropylmethyl)-7-[(5-ethyl-2,3-dihydro-11′-pyrrolo[2,3-b]pyridin-1-yl)carbonyl]-8-methyl[1,2,4]triazolo[4,3-a]quinoxalin-4(5H)-one dihydrochloride] here?
A: The melting point was 173 to 175 °C.
